Laboratory results from PubChem BioAssay (NCI).
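Interpolation was linear, between the two tested concentrations surrounding the appropriate level; five concentrations were tested over 48 hours in 96-well plates. GI50 marks 50% less growth. At the TGI there is no net growth.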

What was measured:
Assay in all cases: growth of human tumour cells (NCI), 48 h
MOLT-4 leukemia = system: MOLT-4 leukemia
K-562 leukemia = system: K-562 leukemia
KM12 colon = system: KM12 colon
MDA-MB-231 breast = system: MDA-MB-231 breast
SK-MEL-2 melanoma = system: SK-MEL-2 melanoma
A549 NSCLC = system: A549 NSCLC
786-0 renal = system: 786-0 renal
NCI-H522 lung = system: NCI-H522 lung
SK-MEL-5 melanoma = system: SK-MEL-5 melanoma
SNB-75 CNS = system: SNB-75 CNS
SR leukemia = system: SR leukemia
SF-295 CNS = system: SF-295 CNS
OVCAR-5 ovarian = system: OVCAR-5 ovarian
CAKI-1 renal = system: CAKI-1 renal
OVCAR-4 ovarian = system: OVCAR-4 ovarian
HCC-2998 colon = system: HCC-2998 colon
MCF7 breast = system: MCF7 breast
NCI-H460 lung = system: NCI-H460 lung
HOP-62 NSCLC = system: HOP-62 NSCLC
HS 578T breast = system: HS 578T breast
SNB-19 CNS = system: SNB-19 CNS
SK-MEL-28 melanoma = system: SK-MEL-28 melanoma
COLO 205 colon = system: COLO 205 colon
OVCAR-8 ovarian = system: OVCAR-8 ovarian
T-47D breast = system: T-47D breast
SF-539 CNS = system: SF-539 CNS
A498 renal = system: A498 renal
LOX IMVI melanoma = system: LOX IMVI melanoma
SW-620 colon = system: SW-620 colon

## Oc1ccc(C(c2ccc(O)cc2)c2ccc(Br)cn2)cc1
MOLT-4 leukemia
  GI50: 21.3 µM
  TGI: 76.4 µM
K-562 leukemia
  GI50: 14.4 µM
  TGI: > 100 µM
KM12 colon
  GI50: 0.454 µM
  TGI: 18.9 µM
MDA-MB-231 breast
  GI50: 13.4 µM
  TGI: 49.2 µM
SK-MEL-2 melanoma
  GI50: 1.69 µM
  TGI: 21 µM
A549 NSCLC
  GI50: 1.95 µM
  TGI: 60 µM
786-0 renal
  GI50: 21.5 µM
  TGI: > 79.7 µM
NCI-H522 lung
  GI50: 1.43 µM
  TGI: 46.6 µM
SK-MEL-5 melanoma
  GI50: 11.9 µM
  TGI: 24.5 µM
SNB-75 CNS
  GI50: 0.192 µM
  TGI: 0.635 µM
SR leukemia
  GI50: 26 µM
  TGI: > 86.3 µM
SF-295 CNS
  GI50: 0.331 µM
  TGI: 1.63 µM
OVCAR-5 ovarian
  GI50: 13.7 µM
  TGI: > 71 µM
CAKI-1 renal
  GI50: 20.1 µM
  TGI: > 100 µM
OVCAR-4 ovarian
  GI50: 0.101 µM
  TGI: 0.525 µM
HCC-2998 colon
  GI50: 0.322 µM
  TGI: 2.98 µM
MCF7 breast
  GI50: 0.264 µM
  TGI: 0.732 µM
NCI-H460 lung
  GI50: 20.7 µM
  TGI: 49.1 µM
HOP-62 NSCLC
  GI50: 6.12 µM
  TGI: > 62 µM
HS 578T breast
  GI50: 0.242 µM
  TGI: 0.593 µM
SNB-19 CNS
  GI50: 16.1 µM
  TGI: > 100 µM
SK-MEL-28 melanoma
  GI50: 21.3 µM
  TGI: 60 µM
COLO 205 colon
  GI50: 0.308 µM
  TGI: 3.44 µM
OVCAR-8 ovarian
  GI50: 0.276 µM
  TGI: 0.786 µM
T-47D breast
  GI50: 0.177 µM
  TGI: 0.531 µM
SF-539 CNS
  GI50: 5.28 µM
  TGI: 27.6 µM
A498 renal
  GI50: 0.6 µM
  TGI: 16.1 µM
LOX IMVI melanoma
  GI50: 0.282 µM
  TGI: 0.895 µM
SW-620 colon
  GI50: 35.9 µM
  TGI: > 100 µM
